ChEMBL document CHEMBL3414534, “Water-soluble isoindolo[2,1-a]quinoxalin-6-imines: in vitro antiproliferative activity and molecular mechanism(s) of action” (Eur J Med Chem, 2015)
Values after ≈ are worked out from the molar mass of the structure shown. Values joined by “and” are separate entries in the source; they are usually repeats but may differ in a detail not shown here. Equal entries are not always repeated. Active and inactive are the calls of the source. The rule behind the calls is not given here.

What was measured:
U2OS [1] = assay: Induction of telomere architecture perturbations in human U2OS cells assessed as displacement of human DNA topoisomerase 1 from telomeres at cytotoxic IC50 level after 24 hrs by chromatin immunoprecipitation method; format: functional
U2OS [2] = assay: Induction of telomere architecture perturbations in human U2OS cells assessed as increase in DNA topoisomerase 1 binding to telomeric sequences at cytotoxic IC50 level after 12 hrs by chromatin immunoprecipitation method; format: functional
[3] = Growth inhibition of human NCI60 cells; format: functional
U2OS [4] = assay: Induction of telomere architecture perturbations in human U2OS cells assessed as displacement of hPOT1 from telomeres at cytotoxic IC50 level after 12 hrs by chromatin immunoprecipitation method; format: functional
U2OS [5] = assay: Induction of telomere architecture perturbations in human U2OS cells assessed as increase in DNA topoisomerase 1 binding to telomeric sequences at cytotoxic IC50 level after 6 hrs by chromatin immunoprecipitation method; format: functional
U2OS [6] = assay: Induction of telomere architecture perturbations in human U2OS cells assessed as displacement of TRF2 from telomeres at cytotoxic IC50 level after 24 hrs by chromatin immunoprecipitation method; format: functional
U2OS [7] = assay: Induction of apoptosis in human U2OS cells assessed as increase in caspase-3 catalytic activity at cytotoxic IC50 level after 72 hrs; format: functional
[8] = Solubility in water at 25 degC sonicated for 10 mins by HPLC method; format: physicochemical
U2OS [9] = assay: Induction of telomere architecture perturbations in human U2OS cells assessed as displacement of hPOT1 from telomeres at cytotoxic IC50 level after 24 hrs by chromatin immunoprecipitation method; format: functional
Homo sapiens [10] = species on record: Homo sapiens; assay: Binding affinity to human telomeric DNA sequence assessed as change in melting temperature at 5 uM at pH 7.4 by fluorescence melting assay
[11] = Binding affinity to Pu24 DNA (unknown origin) assessed as change in melting temperature at 5 uM at pH 7.4 by fluorescence melting assay
[12] = Binding affinity to double stranded DNA (unknown origin) assessed as change in melting temperature at 5 uM at pH 7.4 by fluorescence melting assay
[13] = target: T1, DNA topoisomerase 1 (Homo sapiens) (UniProt P11387); assay: Inhibition of human recombinant topoisomerase 1-dependent DNA cleavage using 751-bp BamHI-EcoRI fragment of SV40 DNA at 1 to 50 uM incubated for 30 mins by PAGE method
T1 sequence (whole entry): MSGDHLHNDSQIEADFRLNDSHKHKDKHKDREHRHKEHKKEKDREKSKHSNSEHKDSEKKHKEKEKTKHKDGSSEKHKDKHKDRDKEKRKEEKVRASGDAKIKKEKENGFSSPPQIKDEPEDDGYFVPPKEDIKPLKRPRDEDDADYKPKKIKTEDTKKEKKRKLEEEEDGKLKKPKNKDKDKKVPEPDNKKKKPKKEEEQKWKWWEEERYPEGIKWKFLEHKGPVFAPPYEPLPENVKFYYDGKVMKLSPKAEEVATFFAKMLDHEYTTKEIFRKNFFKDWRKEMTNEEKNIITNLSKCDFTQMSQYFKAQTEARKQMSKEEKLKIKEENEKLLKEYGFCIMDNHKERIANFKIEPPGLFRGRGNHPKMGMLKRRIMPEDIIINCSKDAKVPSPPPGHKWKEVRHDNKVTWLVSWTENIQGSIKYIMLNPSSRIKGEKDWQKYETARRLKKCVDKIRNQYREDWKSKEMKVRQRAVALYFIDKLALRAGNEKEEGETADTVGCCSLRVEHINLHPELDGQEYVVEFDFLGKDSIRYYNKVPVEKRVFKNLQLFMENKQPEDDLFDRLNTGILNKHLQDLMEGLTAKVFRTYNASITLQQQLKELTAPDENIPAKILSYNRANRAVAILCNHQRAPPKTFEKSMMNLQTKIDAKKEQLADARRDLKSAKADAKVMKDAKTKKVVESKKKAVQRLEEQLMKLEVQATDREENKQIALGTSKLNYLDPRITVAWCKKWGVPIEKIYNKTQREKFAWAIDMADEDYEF

Tubulin (Homo sapiens) [14] = target: T2, Tubulin (Homo sapiens) (UniProt P68371+Q9H4B7+P0DPH7+P68366+Q13509+Q71U36+P04350+Q3ZCM7+P07437+P68363+Q9BQE3+Q6PEY2+Q13885+Q9BVA1+Q9BUF5); assay: Induction of tubulin polymerization in human U2OS cells at cytotoxic IC50 level after 72 hrs by Western blotting method; format: cell-based
[15] = target: Cyclin-dependent kinase 1 (Homo sapiens, UniProt P06493); assay: Inhibition of CDC2 kinase (unknown origin) using histone H1 and [32P]-ATP
[16] = Inhibition of purified recombinant glutathione-S-transferase tagged cdc25 phosphatase (unknown origin) assessed as reduction in p-nitrophenylphosphate phosphatase activity by colorimetry; parameters: species or system Homo sapiens
[17] = target: T1, DNA topoisomerase 1 (Homo sapiens); conditions: 50 uM
Description: Inhibition of human recombinant topoisomerase 1-dependent DNA cleavage using 751-bp BamHI-EcoRI fragment of SV40 DNA at 50 uM incubated for 30 mins by PAGE method

Calf thymus DNA = assay: Binding affinity to calf thymus double stranded DNA assessed as induction of modification of dichroic signal by CD spectroscopy; format: nucleic-acid assay; conditions: Bos taurus
U2OS [18] = assay: Induction of cell cycle arrest in human U2OS cells assessed as increase in accumulation at subG1 phase at cytotoxic IC50 level by propidium iodide staining based based cytofluorimetry; format: functional; conditions: TDE = time-dependent effect
U2OS [19] = assay: Growth inhibition of human U2OS cells after 72 hrs by coulter counter method; format: functional, cell-based
U2OS [20] = assay: Induction of cell cycle arrest in human U2OS cells assessed as accumulation at G2/M phase at cytotoxic IC50 level by propidium iodide staining based based cytofluorimetry; format: functional; conditions: TDE = time-dependent effect
U2OS [21] = assay: Induction of telomere architecture perturbations in human U2OS cells assessed as displacement of hPOT1 from telomeres at cytotoxic IC50 level after 72 hrs by chromatin immunoprecipitation method; format: functional, cell-based
Tubulin (Homo sapiens) [22] = target: T2, Tubulin (Homo sapiens); assay: Inhibition of tubulin polymerization in human U2OS cells at cytotoxic IC50 level after 72 hrs by Western blotting method; format: cell-based
Homo sapiens [23] = species on record: Homo sapiens; assay: Binding affinity to human telomeric DNA sequence Tel22 assessed as induction of modification of dichroic signal at 0 to 16 uM at pH 7.4 by CD spectroscopy

Chain of Cyclin-dependent kinase 1 (P06493 whole entry): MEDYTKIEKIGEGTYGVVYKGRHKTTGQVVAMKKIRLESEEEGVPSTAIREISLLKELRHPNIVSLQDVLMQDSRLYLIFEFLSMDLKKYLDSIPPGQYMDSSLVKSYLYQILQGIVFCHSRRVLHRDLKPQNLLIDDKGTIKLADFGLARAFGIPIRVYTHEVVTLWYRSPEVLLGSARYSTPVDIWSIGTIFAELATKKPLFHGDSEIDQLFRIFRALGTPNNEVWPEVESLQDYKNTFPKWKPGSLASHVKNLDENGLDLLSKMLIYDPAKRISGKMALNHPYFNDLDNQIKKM

solubility at 10 min [8] [mM] | ΔTm (Homo sapiens [10]) | ΔTm [11] | ΔTm [12] | SMILES | GI50 ([3]; Homo sapiens, NCI60) [µM] | other results
24.5 (≈ 7580 µg/mL) |  |  |  | COc1cc2cn3c4ccc(O)cc4[nH]c(=N)c3c2cc1OC [listing 1 of 2 here] | < 3.24 | inhibition (INH) (U2OS [1]): 57%; Activity (U2OS [2]): 309%; Activity (U2OS [4]): -88%; Activity (U2OS [5]): 64%; Activity (U2OS [6]): -80%; fold change (FC) (U2OS [7]): 23
14 |  |  |  | CC(=O)O.COc1cc2cn3c4ccc(O)cc4[nH]c(=N)c3c2cc1OC |  | inhibition (INH) (U2OS [1]): 57%; Activity (U2OS [2]): 77%; GI50 [3]: < 3.31 µM; Activity (U2OS [4]): -63%; Activity (U2OS [6]): -66%; fold change (FC) (U2OS [7]): 17; Activity (U2OS [9]): -31%
 | 1.8 °C | 1.5 °C | 0.2 °C | Cc1cccc2c1[nH]c(=N)c1c3ccccc3cn21 |  | 
10.9 |  |  |  | CC(=O)O.COc1ccc2c(c1)cn1c3ccc(O)cc3[nH]c(=N)c21 |  | GI50 [3]: < 8.32 µM
 | 1 °C and 0.8 °C | 2 °C and 1 °C | 0 °C | N=c1[nH]c2cc(O)ccc2n2cc3c(F)cccc3c12 [listing 1 of 2 here] |  | inhibition of DNA cleavage (qualitative) [13]: Dose-dependent effect
13.8 (≈ 3630 µg/mL) | 1.5 °C and 2 °C | 1.1 °C and 2.3 °C | 0.1 °C and 0 °C | COc1ccc2[nH]c(=N)c3c4ccccc4cn3c2c1 | 1.55 | 
23 (≈ 6150 µg/mL) |  |  |  | N=c1[nH]c2cc(O)ccc2n2cc3c(F)cccc3c12 [listing 2 of 2 here] |  | GI50 [3]: 31.6 µM
 | 3.6 °C and 2.5 °C | 1.9 °C and 1.1 °C | 0.2 °C and 0.1 °C | Cc1cc2cn3c4ccc(O)cc4[nH]c(=N)c3c2cc1C [listing 1 of 2 here] |  | 
 |  |  |  | CC(=O)O[C@H]1C(=O)[C@@]2(C)[C@H]([C@H](OC(=O)c3ccccc3)[C@]3(O)C[C@H](OC(=O)[C@H](O)[C@@H](NC(=O)c4ccccc4)c4ccccc4)C(C)=C1C3(C)C)[C@]1(OC(C)=O)CO[C@@H]1C[C@@H]2O |  | Activity (U2OS [7]): Active; Activity (Tubulin (Homo sapiens) [14]): Active
 |  |  |  | O=C(Cn1c2ccc(Br)cc2c2nc3ccccc3nc21)NNC(=S)NC1CCCCC1 |  | IC50 [15]: 70 µM; IC50 [16]: 25 µM
 | 1.4 °C | 2 °C | 0.2 °C | COc1ccc2c(c1)[nH]c(=N)c1c3ccccc3cn21 |  | 
 | 1.1 °C | 1.5 °C | 0.3 °C | N=c1[nH]c2ccccc2n2cc3ccccc3c12 |  | 
14.4 (≈ 4660 µg/mL) |  |  |  | COc1ccc2c(c1)[nH]c(=N)c1c3cc(OC)c(OC)cc3cn21 [listing 1 of 2 here] | > 15.5 | 
14.1 (≈ 3910 µg/mL) |  |  |  | Cc1cc2cn3c4ccc(O)cc4[nH]c(=N)c3c2cc1C [listing 2 of 2 here] |  | GI50 [3]: < 1.45 µM
22.4 (≈ 6260 µg/mL) | 1.9 °C | 0.2 °C | 0.2 °C | COc1ccc2cn3c4ccc(O)cc4[nH]c(=N)c3c2c1 | 12.3 | 
 |  |  |  | CCc1c2c(nc3ccc(O)cc13)-c1cc3c(c(=O)n1C2)COC(=O)[C@]3(O)CC |  | inhibition [17]: Active

solubility at 10 min [8] [mM] | ΔTm (Homo sapiens [10]) | ΔTm [11] | ΔTm [12] | SMILES | GI50 ([3]; Homo sapiens, NCI60) [µM] | other results
14.4 (≈ 4050 µg/mL) | 1.8 °C | 2.1 °C | 0.2 °C | COc1ccc2c(c1)[nH]c(=N)c1c3cccc(F)c3cn21 | 10.7 | 
7.2 |  |  |  | CC(=O)O.COc1ccc2c(c1)[nH]c(=N)c1c3cc(OC)c(OC)cc3cn21 |  | GI50 [3]: < 9.55 µM
21.9 (≈ 6120 µg/mL) |  |  |  | COc1ccc2c(c1)cn1c3ccc(O)cc3[nH]c(=N)c21 [listing 1 of 2 here] | 11 | 
12.7 (≈ 3730 µg/mL) | 4.3 °C and 4.4 °C | 2.6 °C and 2.2 °C | 0.3 °C and 0.7 °C | COc1ccc(OC)c2c1[nH]c(=N)c1c3ccccc3cn21 | 2.29 | 
12.7 |  |  |  | CC(=O)O.N=c1[nH]c2cc(O)ccc2n2cc3c(F)cccc3c12 |  | GI50 [3]: 6.31 µM
 | 0.3 °C | 1.1 °C | 0 °C | N=c1[nH]c2cc(Cl)c(Cl)cc2n2cc3ccccc3c12 |  | 
13 (≈ 3810 µg/mL) | 1.2 °C | 1.1 °C | 0 °C | COc1ccc2c(c1)cn1c3ccc(OC)cc3[nH]c(=N)c21 | < 1.2 | Activity (Calf thymus DNA): inactive; Activity (U2OS [18]): tde; growth inhibition (GI) (U2OS [19]): Active; inhibition (INH) (U2OS [1]): 57%; Activity (U2OS [20]): tde; Activity (U2OS [6]): -67%; fold change (FC) (U2OS [7]): 13; inhibition of DNA cleavage (qualitative) [13]: Dose-dependent effect; Activity (U2OS [21]): inactive; tubulin polymerization inhibition (active/inactive) (Tubulin (Homo sapiens) [22]): Active
 | 5.9 °C and 6.2 °C | 3.4 °C and 2.4 °C | 0.3 °C and 0.2 °C | COc1cc2cn3c4ccc(O)cc4[nH]c(=N)c3c2cc1OC [listing 2 of 2 here] |  | Activity (Calf thymus DNA): Active; Activity (U2OS [18]): tde; growth inhibition (GI) (U2OS [19]): Active; Activity (U2OS [20]): tde; inhibition of DNA cleavage (qualitative) [13]: Active; Activity (Homo sapiens [23]): Active; Activity (U2OS [9]): inactive; tubulin polymerization inhibition (active/inactive) (Tubulin (Homo sapiens) [22]): Active
9.8 |  |  |  | CC(=O)O.Cc1cc2cn3c4ccc(O)cc4[nH]c(=N)c3c2cc1C |  | GI50 [3]: < 5.25 µM
 | 5 °C and 3.1 °C | 4.1 °C and 2.4 °C | 0 °C and 0.1 °C | COc1ccc2c(c1)[nH]c(=N)c1c3cc(OC)c(OC)cc3cn21 [listing 2 of 2 here] |  | 
 | 3.1 °C | 1.9 °C | 0.3 °C | Cc1cc2[nH]c(=N)c3c4ccccc4cn3c2cc1C |  | 
13.2 (≈ 3870 µg/mL) |  |  |  | COc1ccc2c(c1)[nH]c(=N)c1c3cc(OC)ccc3cn21 | < 1.05 | 
 |  |  |  | CCC1=C[C@@H]2CN(C1)Cc1c([nH]c3ccccc13)[C@@](C(=O)OC)(c1cc3c(cc1OC)N(C)[C@H]1[C@@](O)(C(=O)OC)[C@H](OC(C)=O)[C@]4(CC)C=CCN5CC[C@]31[C@@H]54)C2 |  | Activity (U2OS [7]): Active; tubulin polymerization inhibition (active/inactive) (Tubulin (Homo sapiens) [22]): Active
7.8 (≈ 2270 µg/mL) | 2.6 °C and 1.4 °C | 2.1 °C | 0.1 °C and 0 °C | COc1ccc2c(c1)[nH]c(=N)c1c3cc(C)c(C)cc3cn21 | < 3.8 | 
3.4 (≈ 899 µg/mL) |  |  |  | COc1ccc2c(c1)[nH]c(=O)c1c3ccccc3cn21 |  | 
 | 4.4 °C and 4.3 °C | 1.9 °C and 2.9 °C | 0.1 °C and 0.7 °C | COc1ccc2c(c1)cn1c3ccc(O)cc3[nH]c(=N)c21 [listing 2 of 2 here] |  | 
